# Source: US6673749B1, “Use of phyllocladane diterpenoids for plant growth promotion and alleviation of growth retardant allelochemicals, and method therefor” (Council of Scientific and Industrial Research, priority 2002, dated 2004)
# Legend:
# Format in all cases: in vivo
# Hordeum vulgare = assay: Seed germination and seedling shoot/root growth test in petridishes; conditions: control = 100%
# Experimental: (§1) As noted above the activity of phyllocladane diterpenoids used in the practice of this invention was observed when these compounds were tested for their effects on seed germination, root and shoot growth of certain plant species and their antagonistic effect on plant growth retardants by the method described by Bagchi G. D. et al Phytochemistry, 45(6)1131-1133, 1997.
# (§2) Plant growth promoting activity of calliterpenone, calliterpenone monoacetate, and calliterpenone di-acetate was examined at 0.1, 0.01 and 0.001 μM concentrations. The tests were conducted against seeds of two monocotyledonous (Hordeum vulgare and Triticum aestivum) and two dicotyledonous plants (Vigna radiata and Trigonella foenum-graecum). Control seeds were germinated in distilled water and all the observations were compared with […]. The root and shoot growth of all the plant species were affected by the phyllocladane diterpenoids, although the extent of effect varied considerably in the plant species with the chemicals and their concentrations. […] Details of the procedure adopted and results obtained are discussed in the various examples.
# (§3) 100 ml stalk solutions of 0.1 μM concentration were prepared by dissolving required amounts of various test compounds (depending upon their molecular weights) in minimum amount of ethanol or acetone and adding distilled water. From this stalk solution, 0.01 μM and 0.001 μM concentrations were prepared. Calliterpenone and calliterpenone di acetate was dissolved in 2.0 ml absolute ethanol (Merc), while; calliterpenone monoacetate, isopropylideno calliterpenone and trihydroxy calliterpenone were dissolved in 2.0 ml spectral grade acetone (Ranbaxy). The respective control test solutions of distilled water of each concentration also contained equal amount of absolute ethanol or acetone. For an assay, 10 seeds were placed on Whatman filter paper (moistened with 5.0 ml of test solution in a 9.0 cm diameter petridish (in triplicate). The pteridishes were incubated for 9 days in a germinator, maintained at 25.0±1.0° C. with 90% humidity and 4 hr light/day. At the end of incubation, observations were recorded on the seedlings in terms of germination, shoot and root growth. The data on the length of shoot and root of seedlings and number of seeds germinated in different concentrations of compounds were compared with the control, which was taken as 100%. The data thus obtained were presented in Table-1.
# (§4) Root growth of seedlings was measured in the similar way as shoot growth from the experiment as described in Example 1.
# (§5) Effect of test compounds on germination was observed from the same experiment as described in Example 1.
# Vigna radiata = assay: as above; conditions: for Percent (%) germination of seeds in relation to control on 9th day after sowing / Percent (%) root growth of seedlings in relation to control on 9th day after sowing / Percent (%) shoot growth of seedlings in relation to control on 9th day after sowing: Vigna radiata, control = 100%
# Experimental: as §1, §2, §3, §4, §5
# [1] = tested on: Trigonella foenum-graecum; assay: as above; conditions: for Percent (%) germination of seeds in relation to control on 9th day after sowing / Percent (%) root growth of seedlings in relation to control on 9th day after sowing / Percent (%) shoot growth of seedlings in relation to control on 9th day after sowing: Trigonella foenum graecum, control = 100%
# Experimental: as §1, §2, §3, §4, §5
# Triticum aestivum = assay: as above; conditions: control = 100%
# Experimental: as §1, §2, §3, §4, §5
# Sesbania cannabina = assay: Seed germination and seedling growth, comparison with GA3 (Example 4)
# Experimental: as §3
# (§6) Effect of calliterpenone and its derivatives on seed germination and seedling growth in Hibiscus sabdariffa and Sesbania cannabina were measured in the similar way as these were measured in Example-1.
# Hibiscus sabdariffa = assay: as above
# Experimental: as §3, §6
structure (smiles),measurement,setting,value
"C=C1C[C@]23C[C@@]1(O)CC[C@H]2[C@@]12C=C[C@H](O)[C@@](C)(C(=O)O1)[C@H]2[C@@H]3C(=O)O [GA3, Gibberellic acid, reference compound]",Percent (%) germination of seeds in relation to control on 9th day after sowing,Hordeum vulgare; 0.001 μM,100%
same,Percent (%) root growth of seedlings in relation to control on 9th day after sowing,Hordeum vulgare; 0.001 μM,132%
same,Percent (%) shoot growth of seedlings in relation to control on 9th day after sowing,Hordeum vulgare; 0.001 μM,104%
same,Percent (%) germination of seeds in relation to control on 9th day after sowing,Hordeum vulgare; 0.01 μM,100%
same,Percent (%) root growth of seedlings in relation to control on 9th day after sowing,Hordeum vulgare; 0.01 μM,115%
same,Percent (%) shoot growth of seedlings in relation to control on 9th day after sowing,Hordeum vulgare; 0.01 μM,91%
same,Percent (%) germination of seeds in relation to control on 9th day after sowing,Hordeum vulgare; 0.1 μM,100%
same,Percent (%) root growth of seedlings in relation to control on 9th day after sowing,Hordeum vulgare; 0.1 μM,70%
same,Percent (%) shoot growth of seedlings in relation to control on 9th day after sowing,Hordeum vulgare; 0.1 μM,55%
same,Seed germination as compared to 100% in control,"Vigna radiata; V.radiata, concentration not specified",200%
same,Percent (%) germination of seeds in relation to control on 9th day after sowing,Vigna radiata; 0.001 μM,200%
same,Percent (%) root growth of seedlings in relation to control on 9th day after sowing,Vigna radiata; 0.001 μM,102%
same,Percent (%) shoot growth of seedlings in relation to control on 9th day after sowing,Vigna radiata; 0.001 μM,126%
same,Percent (%) germination of seeds in relation to control on 9th day after sowing,Vigna radiata; 0.01 μM,200%
same,Percent (%) root growth of seedlings in relation to control on 9th day after sowing,Vigna radiata; 0.01 μM,103%
same,Percent (%) shoot growth of seedlings in relation to control on 9th day after sowing,Vigna radiata; 0.01 μM,196%
same,Percent (%) germination of seeds in relation to control on 9th day after sowing,Vigna radiata; 0.1 μM,200%
same,Percent (%) root growth of seedlings in relation to control on 9th day after sowing,Vigna radiata; 0.1 μM,104%
same,Percent (%) shoot growth of seedlings in relation to control on 9th day after sowing,Vigna radiata; 0.1 μM,183%
same,Percent (%) germination of seeds in relation to control on 9th day after sowing,[1]; 0.001 μM,100%
same,Percent (%) root growth of seedlings in relation to control on 9th day after sowing,[1]; 0.001 μM,123%
same,Percent (%) shoot growth of seedlings in relation to control on 9th day after sowing,[1]; 0.001 μM,116%
same,Percent (%) germination of seeds in relation to control on 9th day after sowing,[1]; 0.01 μM,100%
same,Percent (%) root growth of seedlings in relation to control on 9th day after sowing,[1]; 0.01 μM,45%
same,Percent (%) shoot growth of seedlings in relation to control on 9th day after sowing,[1]; 0.01 μM,112%
same,Percent (%) germination of seeds in relation to control on 9th day after sowing,[1]; 0.1 μM,100%
same,Percent (%) root growth of seedlings in relation to control on 9th day after sowing,[1]; 0.1 μM,45%
same,Percent (%) shoot growth of seedlings in relation to control on 9th day after sowing,[1]; 0.1 μM,93%
same,Seed germination as compared to 100% in control,"[1]; Trigonella foenum-graceum, concentration not specified",100%
same,Percent (%) germination of seeds in relation to control on 9th day after sowing,Triticum aestivum; 0.001 μM,100%
same,Percent (%) root growth of seedlings in relation to control on 9th day after sowing,Triticum aestivum; 0.001 μM,131%
same,Percent (%) shoot growth of seedlings in relation to control on 9th day after sowing,Triticum aestivum; 0.001 μM,120%
same,Percent (%) germination of seeds in relation to control on 9th day after sowing,Triticum aestivum; 0.01 μM,100%
same,Percent (%) root growth of seedlings in relation to control on 9th day after sowing,Triticum aestivum; 0.01 μM,116%
same,Percent (%) shoot growth of seedlings in relation to control on 9th day after sowing,Triticum aestivum; 0.01 μM,115%
same,Percent (%) germination of seeds in relation to control on 9th day after sowing,Triticum aestivum; 0.1 μM,100%
same,Percent (%) root growth of seedlings in relation to control on 9th day after sowing,Triticum aestivum; 0.1 μM,62%
same,Percent (%) shoot growth of seedlings in relation to control on 9th day after sowing,Triticum aestivum; 0.1 μM,113%
same,Seed Ger.,Sesbania cannabina; 0.001 μM,1
same,Root Growth (mm) 3rd Day,Sesbania cannabina; 0.001 μM,35.5 mm
same,Shoot growth 3rd Day,Sesbania cannabina; 0.001 μM,31.0
same,Root Growth (mm) 6th Day,Sesbania cannabina; 0.001 μM,34.0 mm
same,Shoot growth 6th Day,Sesbania cannabina; 0.001 μM,85.6
same,Root Growth (mm) 9th Day,Sesbania cannabina; 0.001 μM,40.0 mm
same,Shoot growth 9th Day,Sesbania cannabina; 0.001 μM,103.6
same,Seed Ger.,Sesbania cannabina; 0.01 μM,2
same,Root Growth (mm) 3rd Day,Sesbania cannabina; 0.01 μM,23.5 mm
same,Shoot growth 3rd Day,Sesbania cannabina; 0.01 μM,27.0
same,Root Growth (mm) 6th Day,Sesbania cannabina; 0.01 μM,25.5 mm
same,Shoot growth 6th Day,Sesbania cannabina; 0.01 μM,66.8
same,Root Growth (mm) 9th Day,Sesbania cannabina; 0.01 μM,27.8 mm
same,Shoot growth 9th Day,Sesbania cannabina; 0.01 μM,67.0
same,Seed Ger.,Sesbania cannabina; 0.1 μM,1
same,Root Growth (mm) 3rd Day,Sesbania cannabina; 0.1 μM,16.5 mm
same,Shoot growth 3rd Day,Sesbania cannabina; 0.1 μM,32.5
same,Root Growth (mm) 6th Day,Sesbania cannabina; 0.1 μM,16.6 mm
same,Shoot growth 6th Day,Sesbania cannabina; 0.1 μM,42.3
same,Root Growth (mm) 9th Day,Sesbania cannabina; 0.1 μM,26.6 mm
same,Shoot growth 9th Day,Sesbania cannabina; 0.1 μM,61.3
same,Seed Ger.,Hibiscus sabdariffa; 0.001 μM,3
same,Root Growth (mm) 3rd Day,Hibiscus sabdariffa; 0.001 μM,21.5 mm
same,Shoot growth 3rd Day,Hibiscus sabdariffa; 0.001 μM,47.6
same,Root Growth (mm) 6th Day,Hibiscus sabdariffa; 0.001 μM,22.8 mm
same,Shoot growth 6th Day,Hibiscus sabdariffa; 0.001 μM,76.3
same,Root Growth (mm) 9th Day,Hibiscus sabdariffa; 0.001 μM,25.0 mm
same,Shoot growth 9th Day,Hibiscus sabdariffa; 0.001 μM,85.8
same,Seed Ger.,Hibiscus sabdariffa; 0.01 μM,3
same,Root Growth (mm) 3rd Day,Hibiscus sabdariffa; 0.01 μM,15.8 mm
same,Shoot growth 3rd Day,Hibiscus sabdariffa; 0.01 μM,39.6
same,Root Growth (mm) 6th Day,Hibiscus sabdariffa; 0.01 μM,16.6 mm
same,Shoot growth 6th Day,Hibiscus sabdariffa; 0.01 μM,76.5
same,Root Growth (mm) 9th Day,Hibiscus sabdariffa; 0.01 μM,16.6 mm
same,Shoot growth 9th Day,Hibiscus sabdariffa; 0.01 μM,76.5
same,Seed Ger.,Hibiscus sabdariffa; 0.1 μM,2
same,Root Growth (mm) 3rd Day,Hibiscus sabdariffa; 0.1 μM,15.3 mm
same,Shoot growth 3rd Day,Hibiscus sabdariffa; 0.1 μM,46.8
same,Root Growth (mm) 6th Day,Hibiscus sabdariffa; 0.1 μM,29.3 mm
same,Shoot growth 6th Day,Hibiscus sabdariffa; 0.1 μM,76.6
same,Root Growth (mm) 9th Day,Hibiscus sabdariffa; 0.1 μM,32.0 mm
same,Shoot growth 9th Day,Hibiscus sabdariffa; 0.1 μM,81.6
